Holding throughout (details): reference: Karl et al. (2003)
Data set [1] can be described thus: Henry solubility constant Hcp at 295 K (mol/(m3 Pa)).
A short description of data set [2]: Henry solubility constant Hcp at 298.15 K (mol/(m3 Pa)).
A short description of data set [3]: Henry solubility constant Hcp at 291 K (mol/(m3 Pa)).

In the case of `Cc1cc(C)cc(C)c1` [1,3,5-trimethylbenzene], in data set [1], the “Henry solubility constant Hcp at 295 K” value was found to be 0.002.

As for `Cc1cccc(C)c1` [1,3-dimethylbenzene], the “Henry solubility constant Hcp at 295 K” value in data set [1] was 0.0013.

In the case of `CCc1cccc(O)c1` [1-hydroxy-3-ethylbenzene], in data set [2], the “Henry solubility constant Hcp” value was determined as 4.9. As for `CC1=CC=C(C(C)C)CC1` [1-methyl-4-(1-methylethyl)-1,3-cyclohexadiene], the “Henry solubility constant Hcp at 295 K” value in data set [1] came out at 0.00045. On to `COc1nccnc1CC(C)C` [2-isobutyl-3-methoxypyrazine], for which the “Henry solubility constant Hcp” value in data set [2] amounted to 0.17.

As for `C=CC(=C)C` [2-methyl-1,3-butadiene], the “Henry solubility constant Hcp at 291 K” value in data set [3] is 0.00029.

On to `CCC/C=C/C=O` [(E)-2-hexenal], for which the “Henry solubility constant Hcp” value in data set [2] worked out at 0.14. Consider `CC/C=C/CCOC(C)=O` [(E)-3-hexenyl ethanoate], for which the “Henry solubility constant Hcp” value in data set [2] worked out at 0.033. In the case of `CC/C=C\CCOC(C)=O` [(Z)-3-hexenyl ethanoate], the “Henry solubility constant Hcp” value in data set [2] was found to be 0.031. For the molecule `c1ccccc1` [benzene], in data set [1], the “Henry solubility constant Hcp at 295 K” value was 0.0018. Regarding `CCCCCCOC(C)=O` [hexyl ethanoate], the “Henry solubility constant Hcp” value in data set [2] is 0.015. On to `Cc1ccccc1` [methylbenzene], for which the “Henry solubility constant Hcp at 295 K” value in data set [1] turned out to be 0.0014. As to `CCCc1ccccc1` [propylbenzene], in data set [1], the “Henry solubility constant Hcp at 295 K” value turned out to be 0.0015.

Values taken from Sander's compilation of Henry's law constants (doi:10.1016/s1387-3806(02)00927-2).
